Reference: patent publication US7638554B2, “Flavanoids as chemotherapeutic, chemopreventive, and antiangiogenic agents” (SRI International, priority 2002, dated 2009)

Experiments:
MDA-MB-231 cells = assay: Concurrent cytotoxicity assay (MTT), MDA-MB-231; assay type: cell-based, human; conditions: 5 μM, 22 h
Protocol: The in vitro invasion through Matrigel was studied for two human breast cancer lines: MCF-10CA1a, a highly metastatic ER^+ line and MDA-MB-231, an ER^− line. […] At this concentration, SR13179 inhibited invasion of MDA-MB-231 by about 30% (and by 70% at 5 μM). To rule out a cytotoxic effect in the inhibition of invasion, a concurrent cytotoxicity assay was carried out and the number of viable cells was determined by MTT assay. There was less than 5% decrease in MDA-MB-231 cell viability at 5 μM concentration of SR13179 at 22 h. In the same experiment, a motility experiment was conducted, showing that cell migration was inhibited by about 20%.

[1] = tested on: MDA-MB-231 (ER−) breast cancer cell line; assay: Growth inhibition assay, MTT, MDA-MB-231 breast cancer cells; assay type: cell-based, human; conditions: Homo sapiens, MDA-MB-231, 192 h, eight days, average of at least two experiments
Protocol: Compounds of the invention were tested for their ability to inhibit growth in two breast cancer cell lines, MCF-7 (ER+) and MDA-MB-231 (ER−).
The growth inhibition assays were conducted using routine methods. Briefly, the cells were seeded in 24-well plates at a density of 2000 cells per well in 200 μL of […] growth medium. To each well was added 10 μL of DMSO containing the dissolved test compound; final DMSO concentration in each well was not more than 0.5%. Each test compound was assayed at concentrations of 0.4, 2, 10, and 50 μM. The plates were incubated for eight days, with the media and test solutions replaced every third day. On Day 8, the viable cells were measured by the MTT assay, as described in Mosmann et al. (1983), “Rapid Colorimetric Assay for Cellular Growth and Survival: Application to Proliferation and Cytotoxicity,” J. Immunol. Method. 65:55-63. The optical density at 575 nm of each test well was measured and compared to that for control wells, and the data used to calculate the percentage of growth inhibition at different concentrations. The IC50 value (the concentration of growth inhibitor that results in 50% growth inhibition of the cells in culture relative to control cells not exposed to any growth inhibitor) was determined by plotting dose-response curves.
The calculated IC50 values are set forth in Table 1, with the results representing the average of at least two experiments conducted for each compound at each of the four concentrations.

[2] = tested on: colon cancer cell line SW-620; assay: Growth inhibition, sulforhodamine-based protein determination, SW-620; assay type: cell-based; conditions: Homo sapiens, SW-620, 144 h; continuous exposure six days
Protocol: (§1) The novel compound SR 13179 was assayed for its ability to inhibit growth in several cancer cell lines. The cell lines studied included breast cancer cell line MCF-7 (ER+); prostate cancer cell lines LNCaP, PC3, and DU145; lung cancer cell line A427; ovarian cancer cell lines IGROV1, OVCAR-3, OVCAR-4, OVCAR-5, OVCAR-8, and SK-OV-3; and colon cancer cell lines COLO 205, HCC-2998, HCT-116, HCT-15, HT29, KM12, AND SW-620.
(§2) The growth assays for the breast cancer cell lines were conducted according to the method of Example 16. For the other cell lines, each assay was conducted with continuous exposure to the test compound at four log concentrations for six days, using a sulforhodamine-based protein determination to measure growth inhibition.

[3] = tested on: ovarian cancer cell line OVCAR-5; assay: Growth inhibition, sulforhodamine-based protein determination, OVCAR-5; assay type: cell-based; conditions: Homo sapiens, OVCAR-5, 144 h; continuous exposure six days
Protocol: as §1, §2

`COc1cc(C2CC(O)c3ccc4ccccc4c3O2)cc(OC)c1OC` (stereo not shown) [SR 13179, 2-(3,4,5-trimethoxyphenyl)-3,4-dihydro-2H-benzo[h]chromen-4-ol] was tested, and the “decrease in cell viability” value (MDA-MB-231 cells) was “less than 5%”, the IC50 [1] was 3.01 µM and the IC50 [2] was 281 nM. The IC50 [3] was 1360 nM.
